Data reported in US8946275B2, “Treatment of cancer using hypoxia activated prodrugs” (Threshold Pharmaceuticals, Inc., priority 2008, dated 2015).

What was measured:
H460 NSCLC [1] = experiment: H460 ectopic tumor model, TH-302 with carboplatin; type: in vivo, nude mice; settings: Carboplatin 20 mg/kg IV Q7Dx2; TH-302 100 mg/kg IP Q7Dx2; alone or combined
Experimental: (§1) Anti-tumor activity was evaluated by tumor growth inhibition (TGI) and tumor growth delay (TGD). Body weight change, gross and microscopic assessment of tissue changes, and hematologic assays served for toxicity assessment.
(§2) Testing in these models was conducted generally as follows. 1×10^6 H460 human non-small cell lung cancer or HT1080 human fibrosarcoma cells were implanted in the subcutaneous space of the right flank to obtain ectopic xenograft models. For the orthotopic pancreatic model, red-fluorescent protein (RFP) expressing MIA PaCa2 tumors were surgically implanted on the surface of the pancreas. The prostate metastatic model was created by the intraventricular injection of 3×10^6 luciferase-expressing PC-3 cells. […] API grade of TH-302 was used in all experiments while docetaxel, gemcitabine, doxorubicin and pemetrexed were purchased from commercial sources.
Inhibition of tumor growth after administration of TH-302 and carboplatin was greater than for either drug individually in an ectopic tumor model using H460 cells.

[2] = tested on: H460 human non-small cell lung cancer; experiment: H460 ectopic xenograft, TH-302/docetaxel dosing schedules; type: in vivo, nude mice; settings: single agent, TH-302 100 mg/kg ip once or Docetaxol 10 mg/kg iv once
Experimental: (§3) Anti-tumor activity was evaluated by tumor growth delay (TGD) and tumor growth inhibition (TGI). Body weight change, gross and microscopic assessment of tissue changes, and hematologic assays served for toxicity assessment. Testing in these models was conducted generally as follows. 1×10^6 (H460 human non-small cell lung cancer or HT1080 human fibrosarcoma cells) or 3×10^6 (PC-3 human prostate cancer cells) were implanted in the subcutaneous space of the right flank to obtain ectopic xenograft models. Randomization and dosing was initiated when tumors reached a certain size (100-150 mm^3). API grade of TH-302 was used in all experiments while docetaxel, gemcitabine, cisplatin, pemetrexed, and doxorubicin were purchased from commercial sources.
The H460 cells were prepared in 30% Matrigel and 70%. RPMI1640. Mice were anesthetized by isoflurane and were implanted subcutaneously with 1×10^6 cells (in 200 μl) at the flank position. We selected 110 mice bearing similar size tumors (˜100 mm^3) for the study. Mice bearing similar tumor size were randomly assigned into different groups. Treatment started on day 1 (7 days after tumor implantation) except as noted. […] Animals were observed daily and tumor measurements and body weights recorded twice weekly.

[3] = tested on: PC-3 human prostate cancer cells; experiment: PC-3 ectopic xenograft, TH-302/docetaxel dosing schedules; type: in vivo, nude mice; settings: single agent, TH-302 150 mg/kg ip once or Docetaxol 10 mg/kg iv once
[4] = tested on: HT1080 human fibrosarcoma cells; experiment: HT1080 ectopic xenograft, TH-302/doxorubicin dosing schedules; type: in vivo, nude mice; settings: single agent, TH-302 100 mg/kg ip 1/wkx2wks or Dox 4 mg/kg iv 1/wkx2wks
Experimental: as §3
(§4) The H460 cells were prepared in 30% Matrigel and 70%. RPMI1640. Mice were anesthetized by isoflurane and were implanted subcutaneously with 1×10^6 cells (in 200 μl) at the flank position. We selected 110 mice bearing similar size tumors (˜100 mm^3) for the study. Mice bearing similar tumor size were randomly assigned into different groups. Treatment started on day 1 (7 days after tumor implantation) except as noted. TH-302 was administered intraperitoneally (IP) at 150 mg/kg, and docetaxel was administered intravenously (IV) at 10 mg/kg. Animals were observed daily and tumor measurements and body weights recorded twice weekly.
In a study conducted substantially as described above except the cells implanted were HT1080 human fibrosarcoma cells and 1×10^6 cells were implanted and mice were randomized into separate groups when their […]

Calu6 NSCLC = experiment: Calu-6 ectopic tumor model, TH-302 with doxorubicin; type: in vivo, nude mice; settings: Dox 4 mg/kg IV Q7Dx2; TH-302 50 mg/kg IP QDx5/wkx2wks; alone or combined
HT29 colon cancer = experiment: HT-29 ectopic tumor model, TH-302 with 5FU; type: in vivo, nude mice; settings: 5-FU 50 mg/kg IV Q3Dx4; TH-302 150 mg/kg IP Q7Dx3; alone or combined
H460 NSCLC [5] = experiment: H460 ectopic lung cancer model, TH-302 with pemetrexed; type: in vivo, nude mice; settings: PMX 150 mg/kg 1/wkx2wks IP; TH-302 50 mg/kg 5/wkx2wks IP; alone or combined
Experimental: as §1, §2

H460 NSCLC cells = experiment: H460 ectopic xenograft, TH-302/pemetrexed dosing schedules; type: in vivo, nude mice; settings: single agent, TH-302 100 mg/kg ip Q7Dx2 or PMX 150 mg/kg ip Q7Dx2
Experimental: as §3, §4
In a study conducted substantially as described above except the cells implanted were H460 NSCLC cells and 1×10^6 cells were implanted and mice were randomized into separate groups when their tumors reached ˜100 mm^3 and the chemotherapeutic employed was pemetrexed at a dose of 150 mg/kg given once a week (Q7D) for two weeks IP and the TH-302 was given at 100 mg/kg given once a week (Q7D) for two weeks IP. […]

[6] = single agent, Phase I study; cited from earlier work
[7] = tested on: orthotopic prostate cancer PC-3 cells; experiment: Orthotopic PC-3 prostate cancer model, TH-302 with Taxol; type: in vivo, mice; settings: single agents: Taxol 12 mg/kg; TH-302 30 or 50 mg/kg
Experimental: TH-302 was tested as monotherapy and in combination with Taxol (paclitaxel) in animals bearing highly invasive and metastatic orthotopic prostate cancer PC-3 cells. Animals were randomized into 6 groups of 8 mice each and then treated either with vehicle; Taxol (12 mg/kg, IV, twice a week for 4 consecutive weeks); TH-302 (30 or 50 mg/kg, IP, once a day for 5 days a week for 2 consecutive weeks); or Taxol in combination with TH-302 (using the same single agent regimens).

With N.N.O=C([O-])C1(C(=O)[O-])CCC1.[Pt+2] [Carboplatin, carboplatin, reference compound] the “Days to 500 mm^3” value (H460 NSCLC [1]) was 11.5 days, the “Days to 1000 mm^3” value (H460 NSCLC [1]) was 18.5 days and the T/C (H460 NSCLC [1]) was 69.7%. The “TGD500, Days (vs. vehicle)” value (H460 NSCLC [1]) was 2 days, the “TGD1000, Days (vs. vehicle)” value (H460 NSCLC [1]) was 4.5 days and the TGI (H460 NSCLC [1]) was 30.3%. For the same compound, the “Tn (tumor volume on Day n)” value (H460 NSCLC [1]) was 855.6.

For CC(=O)O[C@@]12CO[C@@H]1C[C@H](O)[C@@]1(C)C(=O)[C@H](O)C3=C(C)[C@@H](OC(=O)[C@H](O)[C@@H](NC(=O)OC(C)(C)C)c4ccccc4)C[C@@](O)([C@@H](OC(=O)c4ccccc4)[C@H]21)C3(C)C [Docetaxol, docetaxel, reference compound], the “Days to 500 mm^3” value [2] was 18 days, the “Days to 1000 mm^3” value [2] was 27 days and the T/C [2] was 57.6%. The “TGD500, Days (vs. vehicle)” value [2] was 5 days, the “TGD1000, Days (vs. vehicle)” value [2] was 7 days and the TGI [2] was 42.4%. The “Tn (tumor volume on Day n)” value ([2]; in mm³) was 681.36, the “Days to 500 mm^3” value [3] was 26 days and the T/C [3] was 49.1%. For the same compound, the “TGD500, Days (vs. vehicle)” value [3] was 10 days, the TGI [3] was 50.9% and the “Tn (tumor volume on Day n)” value ([3]; in mm³) was 563.22.

In the case of COc1cccc2c1C(=O)c1c(O)c3c(c(O)c1C2=O)C[C@@](O)(C(=O)CO)C[C@@H]3O[C@H]1C[C@H](N)[C@H](O)[C@H](C)O1 [Dox, doxorubicin, reference compound], the “Days to 500 mm^3” value [4] is reported as 24 days, the T/C [4] is reported as 5.1% and the “TGD500, Days (vs. vehicle)” value [4] is reported as 12 days. The TGI [4] was 94.9%, the “Tn (tumor volume on Day n)” value [4] was 154.79 and the “Days to 500 mm^3” value (Calu6 NSCLC) was 27 days. For the same compound, the “Days to 1000 mm^3” value (Calu6 NSCLC) was 35 days, the T/C (Calu6 NSCLC) was 67.7% and the “TGD500, Days (vs. vehicle)” value (Calu6 NSCLC) was 9 days. For the same compound, the “TGD1000, Days (vs. vehicle)” value (Calu6 NSCLC) was 4 days, the TGI (Calu6 NSCLC) was 32.3% and the “Tn (tumor volume on Day n)” value (Calu6 NSCLC) was 773.97.

With O=c1[nH]cc(F)c(=O)[nH]1 [Formulation 5-FU, 5-fluorouracil, reference compound] the “Days to 500 mm^3” value (HT29 colon cancer) was 31 days, the “Days to 1000 mm^3” value (HT29 colon cancer) was 43 days and the T/C (HT29 colon cancer) was 43.1%. The “TGD500, Days (vs. vehicle)” value (HT29 colon cancer) was 9 days, the “TGD1000, Days (vs. vehicle)” value (HT29 colon cancer) was 11 days and the TGI (HT29 colon cancer) was 56.9%. The “Tn (tumor volume on Day n)” value (HT29 colon cancer) was 514.11.

In the case of Nc1nc2[nH]cc(CCc3ccc(C(=O)N[C@@H](CCC(=O)O)C(=O)O)cc3)c2c(=O)[nH]1 [PMX, pemetrexed, reference compound], the “Days to 500 mm^3” value (H460 NSCLC [5]) is reported as 19 days, the “Days to 1000 mm^3” value (H460 NSCLC [5]) is reported as 29 days and the T/C (H460 NSCLC [5]) is reported as 70.2%. For the same compound, the “TGD500, Days (vs. vehicle)” value (H460 NSCLC [5]) was 5 days, the “TGD1000, Days (vs. vehicle)” value (H460 NSCLC [5]) was 5 days and the TGI (H460 NSCLC [5]) was 29.8%. For the same compound, the “Tn (tumor volume on Day n)” value (H460 NSCLC [5]) was 850.21, the “Days to 500 mm^3” value (H460 NSCLC cells) was 14 days and the “Days to 1000 mm^3” value (H460 NSCLC cells) was 24 days. For the same compound, the T/C (H460 NSCLC cells) was 72.4%, the “TGD500, Days (vs. vehicle)” value (H460 NSCLC cells) was 2 days and the “TGD1000, Days (vs. vehicle)” value (H460 NSCLC cells) was 3 days. For the same compound, the TGI (H460 NSCLC cells) was 27.6% and the “Tn (tumor volume on Day n)” value (H460 NSCLC cells) was 817.45.

For CS(=O)(=O)OCCN(CCBr)c1c(C(=O)NCCOP(=O)(O)O)cc([N+](=O)[O-])cc1[N+](=O)[O-] [PR104], the “Maximum tolerated dose (MTD) and recommended dose” value [6] is given as 1,100 mg/m^2.

For CC(=O)O[C@H]1C(=O)[C@@]2(C)[C@H]([C@H](OC(=O)c3ccccc3)[C@]3(O)C[C@H](OC(=O)[C@H](O)[C@@H](NC(=O)c4ccccc4)c4ccccc4)C(C)=C1C3(C)C)[C@]1(OC(C)=O)CO[C@@H]1C[C@@H]2O [Taxol, paclitaxel, reference compound], the “Primary tumor growth during the treatment period” value [7] was “significantly inhibited primary tumor growth”.
